Data from patent publication US8232253B2, “Treatment of lung cancer” (Ramot at Tel-Aviv University Ltd., priority 2006, dated 2012).

Experiments:
K-Ras-GTP = biological target: T1, K-Ras-GTP (Homo sapiens, UniProt P01116, G12S); assay: K-Ras-GTP GST-RBD pull-down assay and immunoblotting in A549 cells; assay type: cell-based
T1 construct: endogenous in cells; host or cells: A549 (ATCC)
Protocol: A549 cells were incubated for 24 or 48 h with or without FTS, as described above, and then lysed with lysis buffer as described in Haklai, R., Gana-Weisz, M., Elad, G., et al., Biochemistry 37:1306-14 (1998). The apparent amounts of K-Ras-GTP in 0.5 mg protein of total cell lysates were determined by the glutathione-S-transferase (GST)-RBD (Ras-binding domain of Raf) pull-down assay, as described in (Elad-Sfadia, G., Haklai, R., Ballan, E., Gabius, H. J., Kloog, Y., J Biol Chem 277:37169-75 (2002). The apparent amounts of Rac1-GTP and of RhoA-GTP, each in 2 mg protein of total cell lysates, were determined, respectively, by pull-down assays with GST-PBD (Rac1-binding domain of PAK1)-conjugated and GST-Rhotekin BD (Rho-binding domain of Rhotekin)-conjugated beads [Benard, V., Bohl, B. P., Bokoch, G. M, J Biol Chem 274:13198-204 (1999); Fiordalisi, J. J., Keller, P. J., Cox, A. D., Cancer Res 66:3153-61 (2006). The pulled-down GTPases were subjected to SDS-PAGE followed by immunoblotting with the appropriate antibodies: anti K-Ras (1:30; Calbiochem, La Jolla, Calif.), anti Rac-1 (1:2500; Santa Cruz Biotechnology, Santa Cruz, Calif.), or anti RhoA (1:700; Upstate Biotechnology, Lake Placid, N.Y.). Immunoblots were exposed to 1:2500 peroxidase-goat anti-mouse IgG. Levels of phospho-ERK and phospho-Akt were determined by immunoblotting [Haklai, R., Gana-Weisz, M., Elad, G., et al., supra.] using rabbit anti phospho-ERK1/2 Ab (Santa Cruz Biotechnology, Santa Cruz, Calif.) and rabbit anti phospho-Akt Ab (Cell Signaling, Beverly, Mass.). Protein bands were visualized by enhanced chemiluminescence and quantified by densitometry using ImageJ computer software (National institutes of Health, Bethesda, Md.).
To determine whether active K-Ras-GTP and its prominent downstream signals to ERK and Akt were inhibited in A549 cells, and if so, whether the […] growth of the cells was also affected, two experiments were performed. First, A549 cells were incubated in the absence and in the presence of various concentrations of FTS and K-Ras-GTP, phospho-ERK and phospho-Akt levels were measured.

A549 cells = assay: Anchorage-independent colony formation assay in soft agar; assay type: cell-based; settings: Homo sapiens, A549, 456 h, 19 days, read-out: inhibition of A549 cell growth in soft agar
Protocol: Noble agar (2% and 0.6%; Difco, Detroit, Mich.) was prepared in water and autoclaved. The 2% agar was melted in a microwave oven, mixed 1:1 with medium (×2 Kaighn's modification of Ham's F-12 medium with 20% FCS, 100 U/ml penicillin, and 0.1 mg/ml streptomycin) and poured onto 96-well plates (50 μl per well) to provide the 1% base agar. The 0.6% agar (5 ml) was mixed with 5 ml of medium (×2), containing 8×10^4 A549 cells, and the mixture (50 μl) was plated on top of the base agar. The cells were incubated for 19 days at 37° C. with or without the indicated concentrations of FTS (6 wells for the control and for each treatment) and colonies were stained with MTT (1 mg/ml for 4 h). The colonies were then visualized by light microscopy, imaged, and counted using the ImagePro software. Next, to determine the effect of FTS on the anchorage-independent growth of A549 cells, a soft agar assay was performed. The cells were seeded in soft agar and treated with increasing concentrations of FTS 0 μM, 50 μM and 100 μM (FIGS. 12A-12B). Control cells were treated with 0.1% Me2SO4 (DMSO). FTS inhibited A549 cell growth in soft agar by 27±5.5% and 58±21% at 50 μM and 100 μM FTS, respectively. Thus, FTS inhibited the anchorage-independent growth of A549 cells.

T1 sequence (P01116 whole entry G12S): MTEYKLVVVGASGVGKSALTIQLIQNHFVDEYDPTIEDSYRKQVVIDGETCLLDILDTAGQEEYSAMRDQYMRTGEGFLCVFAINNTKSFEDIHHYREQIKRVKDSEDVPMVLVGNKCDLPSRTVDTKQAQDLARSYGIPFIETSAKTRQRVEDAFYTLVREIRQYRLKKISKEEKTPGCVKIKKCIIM

reduction in K-Ras-GTP (mean±SD) (K-Ras-GTP; 25 μM FTS): 23±15.3%
reduction in K-Ras-GTP (mean±SD) (K-Ras-GTP; 50 μM FTS): 37±3.7%
reduction in K-Ras-GTP (mean±SD) (K-Ras-GTP; 75 μM FTS): 46±1.9%
effective concentration range for the reduction in K-Ras-GTP (K-Ras-GTP; A549 cells): 50 to 75 µM
effect on the total amount of Ras (K-Ras-GTP; A549 cells, various FTS concentrations): no significant effect
Structure (SMILES): CC(C)=CCC/C(C)=C/CC/C(C)=C/CSc1ccccc1C(=O)O [FTS, S-farnesylthiosalicylic acid]
inhibition at 50 µM (A549 cells; 50 μM FTS): 27 ± 5.5%
inhibition at 100 µM (A549 cells; 100 μM FTS): 58 ± 21%
